Experiment [1] concerns the target T1, Recombinant human GLB1 (rhGLB1) (Homo sapiens, UniProt P16278).
T1 sequence (P16278 29-677): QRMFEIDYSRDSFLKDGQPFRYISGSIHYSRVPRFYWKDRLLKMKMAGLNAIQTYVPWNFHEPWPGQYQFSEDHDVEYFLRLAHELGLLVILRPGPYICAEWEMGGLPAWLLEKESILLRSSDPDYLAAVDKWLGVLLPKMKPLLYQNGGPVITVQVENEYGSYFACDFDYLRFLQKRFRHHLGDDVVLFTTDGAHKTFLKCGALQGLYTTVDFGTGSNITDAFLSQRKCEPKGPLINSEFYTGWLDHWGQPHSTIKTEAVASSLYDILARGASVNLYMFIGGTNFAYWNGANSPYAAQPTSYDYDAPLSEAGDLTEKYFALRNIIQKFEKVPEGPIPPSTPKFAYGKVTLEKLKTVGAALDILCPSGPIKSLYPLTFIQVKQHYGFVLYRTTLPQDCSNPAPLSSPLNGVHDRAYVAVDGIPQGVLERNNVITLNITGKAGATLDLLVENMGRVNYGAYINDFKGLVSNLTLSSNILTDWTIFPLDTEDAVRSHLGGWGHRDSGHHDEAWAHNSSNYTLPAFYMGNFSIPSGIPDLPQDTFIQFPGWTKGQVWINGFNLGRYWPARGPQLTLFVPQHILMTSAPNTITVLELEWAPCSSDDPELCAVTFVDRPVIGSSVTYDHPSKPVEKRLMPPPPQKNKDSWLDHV
As to the kind of experiment: Enzymatic hydrolysis by recombinant human GLB1 (fluorescence reaction velocity). In kind it is biochemical. The note with it: compound 500 uM; for Average percent of MU-Gal reaction velocity: pH 4.4, 37° C., relative to positive control MU-Gal; for rhGLB1 substrate: pH 4.4 McIlvaine Buffer, 37° C. How it is done: (§1) Compounds were added to wells of a black-walled clear bottom 96 well plate at a concentration of […]. 4-methylumbelliferyl-alpha-L-fucopyranoside (referred to as MU-Fuc, CAS 54322-38-2) or 4-methylumbelliferyl-beta-D-galactopyranoside (referred to as MU-Gal, CAS 6160-78-7) were included as positive control compounds. Recombinant human FUCA1 (1-25 nM) or GLB1 (2-50 nM) in reaction buffer comprised of pH 4.4 McIlvaine Buffer, 2 mM dithiothreitol and 0.1% (v/v) Tween-20 was added to the wells. Enzyme-free controls were included to check for spontaneous compound hydrolysis. The plate was shaken and incubated at 37° C. in the plate reader. Every 5 minutes, fluorescence was read at the excitation wavelength of 330 nm and the emission wavelength of 450 nm for up to 3 hours. Linear regressions were calculated during the linear phase of the reaction to calculate the reaction velocity at each concentration of compound. Reaction velocities for compounds at 500 uM were compared as a percentage of the appropriate positive control compound.
Hydrolysis by the recombinant human GLB1 (rhGLB1) enzyme of modified galactose sugars conjugated to 4-methylumbelliferone was assessed by quantifying the generation of fluorescence over time as described in Example 10 and is compiled in Table 1, supra. Reaction rates of each compound were compared to the hydrolysis rate of the unmodified galactose conjugate MU-Gal. Of the modified galactose compounds tested, compound 42 was rapidly hydrolyzed, at a rate about 8% of that of MU-Gal. Compounds 33 and 6 were hydrolyzed with reaction velocities about 4% or 3% of that of MU-Gal, respectively. Compounds 35, 31, and 27 were hydrolyzed by rhGLB1, but slowly compared to MU-Gal with rates less than 2% of that of MU-Gal.

The target in experiment [2] is T2, Recombinant human FUCA1 (rhFUCA1) (Homo sapiens, UniProt P04066).
T2 sequence (P04066 32-466): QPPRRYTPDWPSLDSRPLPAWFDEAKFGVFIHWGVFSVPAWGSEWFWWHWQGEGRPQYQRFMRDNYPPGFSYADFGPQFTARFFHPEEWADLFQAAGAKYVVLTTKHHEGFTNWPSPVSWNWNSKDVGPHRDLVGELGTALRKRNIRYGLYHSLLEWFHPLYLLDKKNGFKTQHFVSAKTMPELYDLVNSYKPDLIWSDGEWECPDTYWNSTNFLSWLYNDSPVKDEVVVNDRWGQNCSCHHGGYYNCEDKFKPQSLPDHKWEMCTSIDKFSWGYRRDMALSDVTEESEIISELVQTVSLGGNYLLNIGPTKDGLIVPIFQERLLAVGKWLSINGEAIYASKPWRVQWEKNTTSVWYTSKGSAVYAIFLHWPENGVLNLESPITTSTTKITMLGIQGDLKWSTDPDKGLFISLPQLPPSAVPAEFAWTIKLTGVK
As to the kind of experiment: Enzymatic hydrolysis by recombinant human FUCA1 (fluorescence reaction velocity). In kind it is biochemical. The note with it: compound 500 uM; for Average reaction velocity relative to MU-Fuc (%): pH 4.4, 37° C., relative to positive control MU-Fuc; for rhFUCA1 substrate: pH 4.4 McIlvaine Buffer, 37° C. The method, then:
as §1
Hydrolysis by the recombinant human FUCA1 enzyme (rhFUCA1) of modified fucose sugars conjugated to 4-methylumbelliferone or 7-amino-4-methylcoumarin was assessed by quantifying the generation of fluorescence over time as described in Example 10 and is compiled in Table 1, supra. Reaction rates of each compound were compared to the hydrolysis of the unmodified fucose conjugate MU-Fuc (14). Compound 43 was hydrolyzed by rhFUCA1 at a velocity about 35% of that of MU-Fuc. The reaction rate of 19 with rhFUCA1 was about 30% of that of MU-Fuc.

Experiment [3] deals with T47D breast cancer cells (sgNTC control). Nature of the experiment: Cellular hydrolysis of compounds in live T47D control cells (4-MU fluorescence). It counts as cell-based. The note with it: compound 30 uM, naked sugar and acetylated version; for Average percent of product relative to 26 at 72 hours in T47D control cells: modified galactose conjugates. The method, then:
(§2) T47D breast cancer cells were cultured in RPMI 1640 medium containing 10% heat inactivated fetal bovine serum. Cell lines were infected with lentiviral construct(s) containing S. pyogenes Cas9 and sgRNA(s) targeting the gene(s) of interest (sgNTC, non-targeting control; sgFUCA1_1, FUCA1 knockout). Infected cells were selected by antibiotic treatment. To assess the cellular hydrolysis of compounds, cells were seeded at 3-20,000 cells per well into 96-well plates and incubated at 37° C. with 5% CO2. The next day, compounds (30 uM) were added to the cells. Wells containing only compounds in media were included as background fluorescence controls. 4-methylumbelliferyl-alpha-L-fucopyranoside (referred to as MU-Fuc, CAS 54322-38-2) or 4-methylumbelliferyl-2,3,4,6-tetra-O-acetyl-beta-D-galactopyranoside (CAS 6160-79-8) were included as positive controls. A 4-methylumbelliferone (referred to as 4-MU, CAS 90-33-5) standard ladder ranging from 39 to 5000 pmoles was added to each cell line. Fluorescence was read at the excitation wavelength of 330 nm and the emission wavelength of 450 nm on the plate reader every 24 hours for 72 hours. The plate was returned to the 37° C. 5% CO2 incubator between readings. A linear regression was performed to determine the slope of the line relating fluorescence to pmoles of 4-MU standard at each time point. The average cell-free background fluorescence for each compound at each time point was subtracted from all compound sample fluorescence measurements. Compound sample fluorescence was converted to pmoles of 4-MU by dividing by the slope of the 4-MU linear regression. The amount of 4-MU present at 72 hours for each compound in each cell line was compared as a percentage of the appropriate positive control compound.
The hydrolysis of modified galactose sugars conjugated to 4-methylumbelliferone in live cells was assessed by incubating the compounds in media with T47D breast cancer cells for 3 days and quantifying the generation of fluorescence over time as described in Example 11 and is compiled in Table 3, supra. […]

Experiment [4] deals with T47D FUCA1 knockout cells. Nature of the experiment: Cellular hydrolysis in T47D FUCA1 knockout cells versus T47D control cells. In kind it is cell-based. The note with it: compound 30 uM. The method, then:
as §2, with “4-methylumbelliferyl-alpha-L-fucopyranoside (referred to as MU-Fuc, CAS 54322-38-2) or 4-methylumbelliferyl-2,3,4,6-tetra-O-acetyl-beta-D-galactopyranoside (CAS 6160-79-8) were included as positive controls. A 4-methylumbelliferone (referred to as 4-MU, CAS 90-33-5) standard ladder ranging from 39 to 5000 pmoles was added to each cell line.” left out, “The plate was returned to the 37° C.” left out, “The amount of 4-MU present at 72 hours for each compound in each cell line was compared as a percentage of the appropriate positive control compound.” left out

On to `Cc1cc(=O)oc2cc(O[C@@H]3O[C@@H](C)[C@@H](O)[C@@H](O)[C@@H]3O)ccc12` [Compound 14, 4-methyl-7-(((2S,3S,4R,5S,6S)-3,4,5-trihydroxy-6-methyltetrahydro-2H-pyran-2-yl)oxy)-2H-chromen-2-one, reference compound], for which, in experiment [1], the “Average percent of MU-Gal reaction velocity” value was 7.6% and the rhGLB1 substrate result is given as “yes”. In experiment [2], the “Average reaction velocity relative to MU-Fuc (%)” value was 100% and the rhFUCA1 substrate entry was “yes”. In addition, the “Average percent of product relative to MU-Fuc (14) at 72 hours by T47D control cells” value in experiment [3] (modified fucose conjugates) is 100%.

With `Cc1cc(=O)oc2cc(O[C@H]3C[C@H](O)[C@H](O)[C@H](C)O3)ccc12` [Compound 19, (2S,3R,4S,6S)-2-methyl-6-((4-methyl-2-oxo-2H-chromen-7-yl)oxy)tetrahydro-2H-pyran-3,4-diyl diol], in experiment [2], the rhFUCA1 substrate entry is “yes”.

For the molecule `Cc1cc(=O)oc2cc(O[C@H]3C[C@@H](O)[C@@H](O)[C@@H](CO)O3)ccc12` [Compound 24], in experiment [1], the “Average percent of MU-Gal reaction velocity” value stood at 0%; the rhGLB1 substrate entry was “not hydrolyzed and no”.

For `Cc1cc(=O)oc2cc(O[C@@H]3O[C@H](CO)[C@H](O)[C@H](F)[C@H]3O)ccc12` [Compound 31], the rhGLB1 substrate result in experiment [1] is on record as “yes”.

As for `Cc1cc(=O)oc2cc(O[C@@H]3O[C@H](CO)C[C@H](O)[C@H]3O)ccc12` [Compound 33], in experiment [1], the rhGLB1 substrate entry is on record as “yes”.

For `Cc1cc(=O)oc2cc(O[C@@H]3O[C@H](CO)[C@H](O)C[C@H]3O)ccc12` [Compound 35], the rhGLB1 substrate result in experiment [1] is “yes”.

`COc1ccc(C2O[C@H]3[C@H](O)[C@H](Oc4ccc5c(C)cc(=O)oc5c4)O[C@@H](C)[C@H]3O2)cc1` (stereo partly drawn) [Compound 43, 7-(((3aR,4S,6S,7S,7aS)-7-hydroxy-2-(4-methoxyphenyl)-4-methyltetrahydro-3aH-[1,3]dioxolo[4,5-c]pyran-6-yl)oxy)-4-methyl-2H-chromen-2-one]: the rhFUCA1 substrate entry in experiment [2] was “yes”.

Regarding `CC(=O)O[C@H]1[C@H](OC(C)=O)[C@H](Oc2ccc3c(C)cc(=O)oc3c2)O[C@@H](C)[C@H]1OC(C)=O` [Compound 44], the “Average percent of product formed by each compound at 72 hours in T47D FUCA1 knockout cells relative to product formed in T47D control cells” value in experiment [4] worked out at 8%.

In the case of `Cc1cc(=O)oc2cc(NC(=O)OCc3ccc(O[C@@H]4O[C@@H](C)[C@@H](O)[C@@H](O)[C@@H]4O)cc3)ccc12` [Compound 50, [4-[(2S,3S,4R,5S,6S)-3,4,5-trihydroxy-6-methyl-tetrahydropyran-2-yl]oxyphenyl]methyl N-(4-methyl-2-oxo-chromen-7-yl)carbamate], in experiment [2], the “Average reaction velocity relative to MU-Fuc (%)” value is given as 16.7% and the rhFUCA1 substrate entry is listed as “yes”.

For `Cc1cc(=O)oc2cc(NC(=O)OCc3ccc(NC(=O)O[C@@H]4O[C@@H](C)[C@@H](O)[C@@H](O)[C@@H]4O)cc3)ccc12` [Compound 59, [4-[[(2S,3S,4R,5S,6S)-3,4,5-trihydroxy-6-methyl-tetrahydropyran-2-yl]oxycarbonylamino]phenyl]methyl N-(4-methyl-2-oxo-chromen-7-yl)carbamate], in experiment [2], the rhFUCA1 substrate entry was “yes”.

As for `Cc1cc(=O)oc2cc(O[C@@H]3O[C@H](CO)[C@H](O)[C@H](O)[C@H]3O)ccc12` [MU-Gal, 4-methylumbelliferyl-beta-D-galactopyranoside, reference compound], in experiment [1], the “Average percent of MU-Gal reaction velocity” value turned out to be 100% and the rhGLB1 substrate result is recorded as “yes”.

In the case of “(2R,3S,4S,5R,6S)-2-(acetoxymethyl)-5-fluoro-6-((4-methyl-2-oxo-2H-chromen-7-yl)oxy)tetrahydro-2H-pyran-3,4-diyl diol [Compound 20]”, in experiment [1], the “Average percent of MU-Gal reaction velocity” value stood at 0%; the rhGLB1 substrate result is “not hydrolyzed and no”. Further, the “Average percent of product relative to 26 at 72 hours in T47D control cells” value in experiment [3] was determined as 0%.

For “(2S,3R,4R,5S,6S)-5-fluoro-2-methyl-6((4-methyl-2-oxo-2H-chromen-7-yl)oxy)tetrahydro-2H-pyran-3,4-diyl diacetate [Compound 27]”, the rhGLB1 substrate result in experiment [1] is “yes”. In addition, the “Average percent of product relative to 26 at 72 hours in T47D control cells” value in experiment [3] stood at 13%.
